This passage reports Activity, ED50 and ED40 results from ChEMBL document CHEMBL3272053, “(exo, exo)-2-Aryltropane-3-carboxylic esters, hypoglycemic agents with accompanying analgesic activity” (J Med Chem, 1978).

Active and inactive are the calls of the source. The rule behind the calls is not given here.

Data set [1] relates to Rattus norvegicus. The experiment in a line: Narcotic analgesic activity in fed Sprague-Dawley rat at 240 mg/kg, sc measured at 30 mins by D'Amour-Smith tail-flick test. Type of data set: functional. The following applies: route subcutaneous. On the technique in general: In hot-plate and tail-flick tests a longer latency is read as antinociception.
Data set [2] relates to Mus musculus. The experiment in a line: Analgesic activity in sc dosed Swiss-Webster mouse assessed as reduction of acetylcholine-induced writhing. Type of data set: functional. The following applies: Mus musculus, Swiss-Webster, sc; for ED50: read-out: ED50. (Writhing tests count abdominal constrictions after an irritant is injected.)
For data set [3], the system named is Rattus norvegicus. In words: Analgesic activity in rat assessed as protection against intraarterial bradykinin-induced pain response at 50 mg/kg, sc relative to control. Type of data set: functional. The following applies: route subcutaneous.
The test system of data set [4] is Rattus norvegicus. In words: Toxicity in Sprague-Dawley rat assessed as tremor at 240 mg/kg, sc. On the set-up: dose 240 mg/kg, route subcutaneous. The settings on record: in vivo. Type of data set: organism-based.
Data set [5] deals with Rattus norvegicus. The experiment in a line: Toxicity in Sprague-Dawley rat assessed as convulsion at 240 mg/kg, sc. Type of data set: organism-based. On the set-up: dose 240 mg/kg, route subcutaneous. The settings on record: in vivo.
Data set [6] relates to Rattus norvegicus. In words: Hypoglycemic activity in Sprague-Dawley rat assessed as reduction of blood glucose level at 87 mg/kg, po by glucagon-impaired glucose disposal test relative to control. Type of data set: functional. Details: scale not given: the % may be the effect or the level left.
Data set [7] relates to Rattus norvegicus. In words: Hypoglycemic activity in glucose loaded Sprague-Dawley rat assessed as reduction of blood glucose level at 100 mg/kg, po relative to control. Type of data set: functional. Details: scale not given: the % may be the effect or the level left.
Data set [8] concerns Rattus norvegicus. In words: Narcotic analgesic activity in fasted Sprague-Dawley rat at 240 mg/kg, po measured at 15 mins by D'Amour-Smith tail-flick test relative to control. Type of data set: functional.
For data set [9], the system named is Mus musculus. In words: Analgesic activity in Swiss-Webster mouse assessed as reduction of acetylcholine-induced writhing at 75 mg/kg, sc relative to control. The settings on record: route subcutaneous. Type of data set: functional. On the set-up: scale not given: the % may be the effect or the level left.
For data set [10], the species on record is Rattus norvegicus. The experiment in a line: Narcotic analgesic activity in Sprague-Dawley rat measured at 15 mins by D'Amour-Smith tail-flick test relative to control. Type of data set: functional.
In data set [11] the test system is Rattus norvegicus. In words: Hypoglycemic activity in Sprague-Dawley rat assessed as reduction of blood glucose level at 87 mg/kg, po by glucagon-impaired glucose disposal test in presence of microsomal enzyme inhibitor SKF 525-A. Type of data set: functional, organism-based. On the set-up: dose 87 mg/kg.
Data set [12] concerns Rattus norvegicus. In words: Toxicity in Sprague-Dawley rat assessed as hyperexcitability at 120 mg/kg, po. Type of data set: organism-based. On the set-up: dose 120 mg/kg, route oral. The settings on record: in vivo.
Data set [13] has as its system Rattus norvegicus. The experiment in a line: Toxicity in Sprague-Dawley rat assessed as tremor at 120 mg/kg, po. On the set-up: dose 120 mg/kg, route oral. Type of data set: organism-based. The following applies: in vivo.
Data set [14] relates to Rattus norvegicus. In words: Narcotic analgesic activity in fasted Sprague-Dawley rat at 120 mg/kg, po measured at 15 mins by D'Amour-Smith tail-flick test relative to control. Type of data set: functional.
The test system of data set [15] is Rattus norvegicus. The experiment in a line: Toxicity in Sprague-Dawley rat assessed as convulsion at 240 mg/kg, po. Type of data set: organism-based. Details: dose 240 mg/kg, route oral. The following applies: in vivo.
The test system of data set [16] is Rattus norvegicus. The experiment in a line: Toxicity in fasted Sprague-Dawley rat assessed as mortality at 240 mg/kg, po measured at 60 mins. On the set-up: dose 240 mg/kg, route oral. Type of data set: organism-based. The following applies: in vivo, 1 h.
For data set [17], the system named is Rattus norvegicus. In words: Narcotic antagonist activity in fed Sprague-Dawley rat assessed as decrease in phenazocine-induced analgesic activity at 80 mg/kg, sc. The settings on record: route subcutaneous. Type of data set: functional. On the set-up: scale not given: the % may be the effect or the level left.
Data set [18] deals with Rattus norvegicus. The experiment in a line: Hypoglycemic activity in Sprague-Dawley rat assessed as reduction of blood glucose level at 78 mg/kg, po by glucagon-impaired glucose disposal test relative to control. On the set-up: scale not given: the % may be the effect or the level left. Type of data set: functional.
Data set [19] has as its system Rattus norvegicus. In words: Narcotic analgesic activity in fasted Sprague-Dawley rat at 240 mg/kg, po measured at 60 mins by D'Amour-Smith tail-flick test relative to control. Type of data set: functional.
The test system of data set [20] is Rattus norvegicus. The experiment in a line: Hypoglycemic activity in Sprague-Dawley rat assessed as reduction of blood glucose level at 300 mg/kg, po by glucagon-impaired glucose disposal test relative to control. Type of data set: functional. Details: scale not given: the % may be the effect or the level left.
Data set [21] concerns Rattus norvegicus. In words: Toxicity in Sprague-Dawley rat assessed as hyperexcitability at 240 mg/kg, po. Type of data set: organism-based. Details: dose 240 mg/kg, route oral. The settings on record: in vivo.
The test system of data set [22] is Rattus norvegicus. In words: Hypoglycemic activity in Sprague-Dawley rat assessed as reduction of blood glucose level at 100 mg/kg, po by glucagon-impaired glucose disposal test relative to control. On the set-up: scale not given: the % may be the effect or the level left. Type of data set: functional.
Data set [23] has as its system Rattus norvegicus. The experiment in a line: Narcotic analgesic activity in fasted Sprague-Dawley rat at 480 mg/kg, po measured at 60 mins by D'Amour-Smith tail-flick test relative to control. Type of data set: functional.
Data set [24] relates to Rattus norvegicus. In words: Analgesic activity in po dosed rat assessed as reduction of intraarterial bradykinin-induced pain response. Type of data set: functional.
The subject of data set [25] is Rattus norvegicus. In words: Toxicity in Sprague-Dawley rat assessed as tremor at 480 mg/kg, po. Type of data set: organism-based. On the set-up: dose 480 mg/kg, route oral. The settings on record: in vivo.
In data set [26] the test system is Rattus norvegicus. In words: Toxicity in Sprague-Dawley rat assessed as convulsion at 480 mg/kg, po. On the set-up: dose 480 mg/kg, route oral. Type of data set: organism-based. The following applies: in vivo.
The subject of data set [27] is Rattus norvegicus. In words: Hypoglycemic activity in glucose loaded Sprague-Dawley rat assessed as reduction of blood glucose level at 264 mg/kg, po relative to control. Type of data set: functional. Details: scale not given: the % may be the effect or the level left.
Data set [28] has as its system Mus musculus. In words: Analgesic activity in Swiss-Webster mouse assessed as reduction of acetylcholine-induced writhing at 50 mg/kg, po relative to control. Type of data set: functional. Details: scale not given: the % may be the effect or the level left.
The subject of data set [29] is Rattus norvegicus. The experiment in a line: Hypoglycemic activity in Sprague-Dawley rat assessed as reduction of blood glucose level at 88 mg/kg, po by glucagon-impaired glucose disposal test relative to control. Type of data set: functional.
Data set [30] relates to Rattus norvegicus. The experiment in a line: Hypoglycemic activity in glucose loaded Sprague-Dawley rat assessed as reduction of blood glucose level at 84 mg/kg, po relative to control. Type of data set: functional. On the set-up: scale not given: the % may be the effect or the level left.

The term ED50 denotes the dose that gives a 50% effect, or the effect in half of the subjects. As to `CC(=O)[C@H]1C[C@H]2CC[C@H]([C@H]1c1cccs1)N2C.Cl`, the Activity was 55% in data set [1]; 80% in [3]; “Toxic” in data set [4]; “Toxic” in data set [5]; 26% in [6]. For the same compound, the ED50 in data set [2] turned out to be 12 mg/kg.

In the case of `CCC(CC)CN1[C@@H]2CC[C@@H]1[C@@H](c1cccs1)[C@@H](C(=O)OC)C2`, the Activity in data set [7] came to 69%; in [8] it was 72%; in data set [9], 7%; in data set [10] it was 24%.

Regarding `COC(=O)[C@H]1C[C@H]2CC[C@@H](N2)[C@H]1c1ccccc1.Cl`, the ED50 in data set [2] was determined as 4 mg/kg. For the same compound, in [11], the result was Active. In addition, the Activity result in data set [12] was “Toxic”; in data set [13] it was “Toxic”; in data set [14], 69%; in [6] it was 31%.

For the compound `COC(=O)[C@H]1C[C@H]2CC[C@H]([C@H]1c1ccccc1)N2C` (stereo in doubt; (-)-5), the ED50 in [2] was 18 mg/kg. Also, the results for the Activity entry in data set [15], in data set [16] and in [17] were “Toxic”, “Toxic” and 73%, respectively.

Regarding `CN1[C@@H]2CC[C@@H]1[C@@H](c1ccccc1)[C@@H](C(=O)O)C2`, the Activity in data set [18] was less than 20%; in [19] it was less than 20%; in data set [8] it was less than 20%; in data set [9], 7%.

Turning to `COC(=O)[C@H]1C[C@H]2CC[C@H]([C@H]1c1ccsc1)N2C`, the Activity is 42% in [20], 40% in data set [19] and “Toxic” in data set [21]. In [2], the ED40 worked out at 12 mg/kg.

As for `COC(=O)[C@H]1C[C@H]2CC[C@H]([C@H]1c1ccc[nH]1)N2C`, the Activity is given as 30% in [22]; 19% in data set [19]; 86% in data set [23]; “Toxic” in data set [25]; “Toxic” in [26]. Besides, the ED50 in data set [2] turned out to be 18 mg/kg; in data set [24], 8.5 mg/kg.

With `COC(=O)CN1[C@@H]2CC[C@@H]1[C@@H](c1cccs1)[C@@H](C(=O)OC)C2.Cl`, the Activity in [27] amounted to 70%; in data set [8], 100%; in [28] it was 33%. Further, the result in [29] was inactive.

Take `COC(=O)[C@H]1C[C@H]2CC[C@H]([C@H]1C)N2C.Cl`: in [30], the Activity is reported as less than 20%.
